Converted amounts (≈) assume the structure as drawn. “And” between values parts separate entries of the source, which are not always exact repeats. Equal values may be shown once.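 48-hour exposure; five concentrations; linearly interpolated endpoints. At the GI50, growth is halved. TGI is the concentration that stops growth completely.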 The source made the active and inactive calls. No stated cut-off is given here; in the data, active means GI50 below about 0.43 µM; inactive means the rest.
What was measured:
Test in all cases: NCI tumour cell line growth inhibition, 48 h
BT-549 breast = tested on: BT-549 breast
MCF7 breast = tested on: MCF7 breast
P388 leukemia = tested on: P388 leukemia
MDA-MB-231 breast = tested on: MDA-MB-231 breast
HS 578T breast = tested on: HS 578T breast
SW-620 colon = tested on: SW-620 colon
MDA-N = tested on: MDA-N
MDA-MB-435 = tested on: MDA-MB-435
P388/ADR leukemia = tested on: P388/ADR leukemia
LXFL 529 NSCLC = tested on: LXFL 529 NSCLC
DU-145 prostate = tested on: DU-145 prostate
PC-3 prostate = tested on: PC-3 prostate
T-47D breast = tested on: T-47D breast
NCI/ADR-RES ovarian = tested on: NCI/ADR-RES ovarian
SN12K1 renal = tested on: SN12K1 renal
RXF 393 renal = tested on: RXF 393 renal
OVCAR-4 ovarian = tested on: OVCAR-4 ovarian
NCI-H226 lung = tested on: NCI-H226 lung
HL-60(TB) leukemia = tested on: HL-60(TB) leukemia
HCT-15 colon = tested on: HCT-15 colon
U251 CNS = tested on: U251 CNS
SN12C renal = tested on: SN12C renal
DLD-1 colon = tested on: DLD-1 colon
HCC-2998 colon = tested on: HCC-2998 colon
SK-OV-3 ovarian = tested on: SK-OV-3 ovarian
A498 renal = tested on: A498 renal
OVCAR-3 ovarian = tested on: OVCAR-3 ovarian
KM12 colon = tested on: KM12 colon
HOP-92 NSCLC = tested on: HOP-92 NSCLC
EKVX NSCLC = tested on: EKVX NSCLC
NCI-H460 lung = tested on: NCI-H460 lung
NCI-H522 lung = tested on: NCI-H522 lung
UO-31 renal = tested on: UO-31 renal
CCRF-CEM leukemia = tested on: CCRF-CEM leukemia
NCI-H23 lung = tested on: NCI-H23 lung
OVCAR-5 ovarian = tested on: OVCAR-5 ovarian
K-562 leukemia = tested on: K-562 leukemia
SF-539 CNS = tested on: SF-539 CNS
UACC-257 melanoma = tested on: UACC-257 melanoma
A549 NSCLC = tested on: A549 NSCLC
M19-MEL melanoma = tested on: M19-MEL melanoma
HT29 colon = tested on: HT29 colon
DMS 114 small cell lung = tested on: DMS 114 small cell lung
MOLT-4 leukemia = tested on: MOLT-4 leukemia
COLO 205 colon = tested on: COLO 205 colon
RPMI-8226 leukemia = tested on: RPMI-8226 leukemia
CAKI-1 renal = tested on: CAKI-1 renal
HOP-62 NSCLC = tested on: HOP-62 NSCLC
SF-295 CNS = tested on: SF-295 CNS
KM20L2 colon = tested on: KM20L2 colon
SNB-75 CNS = tested on: SNB-75 CNS

## COc1cccc2c1C(=O)c1c(O)c3c(c(O)c1C2=O)C[C@@](O)(C(C)=O)C[C@@H]3OC1CC(N(Cc2ccccc2)Cc2ccccc2)C(O)C(C)O1 (stereo partly drawn)
BT-549 breast
  TGI: > 50 µM
MCF7 breast
  TGI: > 36 µM
P388 leukemia
  TGI: 12.3 µM
MDA-MB-231 breast
  TGI: > 28.1 µM
HS 578T breast
  TGI: > 50 µM
SW-620 colon
  GI50: < 0.01 µM and 0.0869 µM
MDA-N
  TGI: > 23.2 µM
MDA-MB-435
  TGI: 14 µM
P388/ADR leukemia
  TGI: > 50 µM
LXFL 529 NSCLC
  GI50: < 0.01 µM
DU-145 prostate
  TGI: > 28.1 µM
PC-3 prostate
  TGI: > 28.1 µM
T-47D breast
  TGI: > 28.1 µM
NCI/ADR-RES ovarian
  TGI: > 37.5 µM
SN12K1 renal
  TGI: > 46.9 µM

## Cc1c2ccncc2c(C)c2c1[nH]c1ccc(O)cc12
RXF 393 renal
  GI50: 0.102 µg/mL (≈ 0.387 µM)
OVCAR-4 ovarian
  GI50: 0.148 µg/mL (≈ 0.564 µM)
  TGI: 0.303 µg/mL (≈ 1.16 µM)
NCI-H226 lung
  GI50: 0.137 µg/mL (≈ 0.522 µM)
  TGI: 1.08 µg/mL (≈ 4.12 µM)
HL-60(TB) leukemia
  TGI: 0.0548 µg/mL (≈ 0.209 µM)
HCT-15 colon
  GI50: 0.0107 µg/mL (≈ 0.0409 µM)
  TGI: 0.361 µg/mL (≈ 1.38 µM)
U251 CNS
  GI50: 0.042 µg/mL (≈ 0.16 µM)
  TGI: 0.35 µg/mL (≈ 1.33 µM)
SN12C renal
  TGI: 0.0638 µg/mL (≈ 0.243 µM)
DLD-1 colon
  GI50: 0.023 µg/mL (≈ 0.0875 µM)
  TGI: 0.883 µg/mL (≈ 3.37 µM)
HCC-2998 colon
  GI50: 0.261 µg/mL (≈ 0.996 µM)
  TGI: 1.63 µg/mL (≈ 6.21 µM)
SK-OV-3 ovarian
  GI50: 0.0393 µg/mL (≈ 0.15 µM)
  TGI: 0.261 µg/mL (≈ 0.996 µM)
A498 renal
  GI50: 0.501 µg/mL (≈ 1.91 µM)
  TGI: 1.9 µg/mL (≈ 7.24 µM)
OVCAR-3 ovarian
  GI50: 0.0909 µg/mL (≈ 0.347 µM)
  TGI: 0.435 µg/mL (≈ 1.66 µM)
KM12 colon
  GI50: 0.0458 µg/mL (≈ 0.174 µM)
  TGI: 0.271 µg/mL (≈ 1.03 µM)
HOP-92 NSCLC
  GI50: 0.0448 µg/mL (≈ 0.171 µM)
  TGI: 0.579 µg/mL (≈ 2.21 µM)
EKVX NSCLC
  GI50: 0.0921 µg/mL (≈ 0.351 µM)
  TGI: 0.273 µg/mL (≈ 1.04 µM)
NCI-H460 lung
  GI50: 0.0157 µg/mL (≈ 0.0598 µM)
  TGI: 0.0467 µg/mL (≈ 0.178 µM)
NCI-H522 lung
  TGI: 0.172 µg/mL (≈ 0.657 µM)
UO-31 renal
  GI50: 0.073 µg/mL (≈ 0.278 µM)
  TGI: 1.09 µg/mL (≈ 4.15 µM)
CCRF-CEM leukemia
  GI50: 0.0158 µg/mL (≈ 0.06 µM)
  TGI: 0.31 µg/mL (≈ 1.18 µM)
NCI-H23 lung
  GI50: 11800 µM
  TGI: 84.1 mM and 0.0172 µg/mL
MCF7 breast
  GI50: 0.0319 µg/mL (≈ 0.122 µM)
  TGI: 0.338 µg/mL
OVCAR-5 ovarian
  GI50: 0.239 µg/mL (≈ 0.909 µM)
  TGI: 0.831 µg/mL (≈ 3.17 µM)
P388 leukemia
  TGI: 0.232 µg/mL
K-562 leukemia
  GI50: 0.0182 µg/mL (≈ 0.0695 µM)
  TGI: 0.675 µg/mL (≈ 2.57 µM)
SF-539 CNS
  GI50: 0.263 µg/mL (≈ 1 µM)
  TGI: 1.29 µg/mL (≈ 4.93 µM)
UACC-257 melanoma
  GI50: 0.267 µg/mL (≈ 1.02 µM)
  TGI: 1.12 µg/mL (≈ 4.26 µM)
A549 NSCLC
  TGI: 0.397 µg/mL (≈ 1.51 µM)
M19-MEL melanoma
  GI50: 0.0231 µg/mL (≈ 0.0881 µM)
  TGI: 0.388 µg/mL (≈ 1.48 µM)
HT29 colon
  GI50: 0.185 µg/mL (≈ 0.704 µM)
  TGI: 1.23 µg/mL (≈ 4.67 µM)
DMS 114 small cell lung
  GI50: 0.0226 µg/mL (≈ 0.0863 µM)
  TGI: 0.227 µg/mL (≈ 0.866 µM)
SW-620 colon
  GI50: 0.0267 µg/mL
  TGI: 3.94 µg/mL (≈ 15 µM)
MOLT-4 leukemia
  TGI: 0.0671 µg/mL (≈ 0.256 µM)
COLO 205 colon
  GI50: 0.0699 µg/mL (≈ 0.267 µM)
  TGI: 0.455 µg/mL (≈ 1.73 µM)
P388/ADR leukemia
  GI50: 0.014 µg/mL (≈ 0.0532 µM)
  TGI: 1.75 µg/mL
RPMI-8226 leukemia
  GI50: 0.0217 µg/mL (≈ 0.0826 µM)
  TGI: 0.129 µg/mL (≈ 0.491 µM)
CAKI-1 renal
  GI50: 0.0137 µg/mL (≈ 0.0522 µM)
  TGI: 0.0686 µg/mL (≈ 0.262 µM)
HOP-62 NSCLC
  GI50: 0.0255 µg/mL (≈ 0.0972 µM)
  TGI: 0.206 µg/mL (≈ 0.787 µM)
SF-295 CNS
  GI50: 0.0181 µg/mL (≈ 0.0692 µM)
  TGI: 0.167 µg/mL (≈ 0.638 µM)
KM20L2 colon
  outcome: inactive
SNB-75 CNS
  GI50: 22600 µM
SN12K1 renal
  GI50: 0.0168 µg/mL (≈ 0.0639 µM)
  TGI: 0.182 µg/mL

— PubChem BioAssay (NCI)
